Test system: relapsed or refractory PTCL
Assay: Efficacy study of compound shown in Formula (I) in peripheral T-cell lymphoma patients
Type: in vivo, human
Method: ORR: Defined as the proportion of subjects with best efficacy of CR or PR from the start of the first dose to the occurrence of PD or the start of subsequent new anti-tumor treatment, whichever occurs first. • 1.1 Drugs: Compound (WO2017084494A) shown in Formula (1), strength: 50 mg/tablet, 200 mg/tablet. • 1.2 Methods of administration: 350 mg, twice a day, 28 days as a cycle. • 1.3 Inclusion criteria: Relapsed or refractory T lymphocytic lymphoma. A total of 24 patients with relapsed or refractory PTCL were enrolled in the 350 mg group, of whom 16 received chidamide, and all patients were analyzed for efficacy data based on indistinguishable prior treatment and prior chidamide treatment.

CCc1c(N(CC)C2CCOCC2)cc2oc(CN3CCCCC3)cc2c1C(=O)NCc1c(C)cc(C)[nH]c1=O [Formula (I)] was tested. Which ORR (350 mg group having used chidamide, ES, AITL (n = 8)) did it give?
The ORR was 62.5%.

What about the ORR (350 mg group having used chidamide, ES, ALL (n = 14)) of the same compound?
Its ORR is 64.3%.

What about the ORR (350 mg group having used chidamide, ES, PTCL-NOS (n = 6)) of the same compound?
The ORR was 66.7%.

And the ORR (350 mg group having used chidamide, FAS, AITL (n = 10))?
The ORR was 50.0%.

What about the ORR (350 mg group having used chidamide, FAS, ALL (n = 16)) of the same compound?
The ORR was 56.3%.

And the ORR (350 mg group having used chidamide, FAS, PTCL-NOS (n = 6))?
Its ORR is 66.7%.

And the ORR (350 mg twice a day, ES, AITL (n = 11))?
Its ORR is 72.7%.

What about the ORR (350 mg twice a day, ES, ALL (n = 18)) of the same compound?
The ORR was 66.7%.

And the ORR (350 mg twice a day, ES, PTCL-NOS (n = 7))?
The ORR was 57.1%.

And the ORR (350 mg twice a day, FAS, AITL (n = 15))?
Its ORR is 53.3%.

What about the ORR (350 mg twice a day, FAS, ALL (n = 24)) of the same compound?
The ORR was 50%.

And the ORR (350 mg twice a day, FAS, PTCL-NOS (n = 9))?
The ORR was 44.4%.
